This note sets out measurements from publication PMC4488747, “Inhibition of P-glycoprotein Gene Expression and Function Enhances Triptolide-induced Hepatotoxicity in Mice” (Scientific Reports, 2015).

d = 2'-deoxy (DNA)

One data set concerns the target T1, P-gp (Mus musculus, UniProt P21447).
T1 construct: from tissue; host or cells: whole living mice (in vivo, intravenous digoxin 1 mg/kg after NC-siRNA or mdr1a-1 siRNA)
Description: P-gp function in knockdown mice assessed by digoxin plasma pharmacokinetics. It is filed as in vivo. The following applies: iv, 1 mg/kg, digoxin 1 mg/kg injection. Here is the method:
For validation of silence efficiency in vivo, mdr1a-1 siRNA was injected via the tail vein of mice after diluted to 5, 10 and 15 nmol with saline in 200 μl. After 48 h, the mice were euthanized and the liver was collected for measurement of the P-gp protein expression using western blot. The P-gp function in gene knockdown mice was assessed using digoxin, a known P-gp substrate. NC-siRNA or mdr1a-1 siRNA was intravenously injected 2 days prior to the injection of digoxin (1mg/kg). Blood samples were collected at 5, 15, 30, min and 1, 2, 4, 6, 8, 12 hours post digoxin dose (n = 5/time-point for each group). The digoxin concentrations in samples were quantitatively analyzed by a published LC-MS/MS method.
Toxicokinetic parameters, including area under the plasma concentration-time curve (AUC), volume of distribution (Vd), clearance (CL), mean residence time (MRT) and terminal elimination half-life (t1/2), were calculated by non-compartmental analysis using WinNonlin 5.2 software (Pharsight Corporation, CA, USA). All the data were expressed as mean ± SD. Differences between groups were compared by Student’s t-test for analysis of unpaired data or one-way ANOVA. Statistical significance was accepted at P < 0.05.

Data set [1] deals with BALB/C mice. Description: Serum ALT and AST (TP-induced hepatotoxicity) in mice. It is filed as in vivo. The conditions noted are these: TP 1 mg/kg iv with P-gp modulator, 24 h after TP. The protocol: For TP plasma kinetic study and toxicological evaluation, mice were divided into four groups (n = 5 each) to collect blood and tissue samples: (1) normal + saline group; (2) 1.0 mg/kg TP + 15 nmol NC-siRNA group; (3) 1.0 mg/kg TP + 15 nmol mdr1a-siRNA group; (4) 1.0 mg/kg TP + 10 mg/kg tariquidar group. In order to avoid the complication caused by drug absorption or possible intestinal first-pass effect, TP and the inhibitor were intravenously administrated to mice. The siRNA group was intravenously injected with NC-siRNA or mdr1a-siRNA 2 days before TP dose. For TP + tariquidar group, the mice were received an intravenous tariquidar dose 20 min prior to the TP injection. Blood samples were collected at 2, 5, 10, 15, 30, 60 and 120 min after TP dosing. To assess the liver exposure of TP, liver tissue samples were collected from another set of mice at 5, 30, 60 and 120 min after dosing. Three TP groups were design for this experiment, including TP + NC-siRNA group, TP + mdr1a-siRNA group and TP + tariquidar group. The liver tissue samples were weighed and then homogenized in 10 volume (w:v) of ice-cold saline. The concentrations of TP in plasma and liver tissue were measured by a validated LC-MS/MS method. Prior to the above animal study, a preliminary experiment was performed to assess the possible differences in liver P-gp protein expression (Figure S1) and TP plasma kinetics between NC-siRNA treated mice and normal mice (with saline) (Figure S2 and supplemental Table 1). […] Therefore, NC-siRNA group was used as the control in the following animal study.
(§1) At 24 h of TP treatment, blood and liver tissue samples were collected from the mice in plasma kinetic study. Serum ALT and AST levels were determined with a CL8000 automated biochemical analyzer (Shimadzu, Japan) after serum was separated by centrifugation at 900 g for 10 min. Liver tissue samples were divided into two parts, the first half was kept at −80 °C until MDA and SOD measurements using MDA and SOD assay kits (Nanjing Jiancheng Bioengineering Institute, Nanjing, China) according to the manufacturer’s instructions. The other half was fixed with 4% paraformaldehyde solution and then dehydrated, embedded in paraffin and sectioned at a thickness of 5 μm. Four paraffin sections from each mouse were dewaxed, rehydrated and stained with hematoxylin-eosin (HE) for overall morphological evaluation. The total protein concentration was quantified by the BCA assay. Bcl-2 and Bax proteins were measured by western blot.

The subject of data set [2] is BALB/C mice. Description: Liver histopathology (HE staining) in mice. In kind it is in vivo. The following applies: TP 1 mg/kg iv, 24 h, TP = NC-siRNA group, tariquidar and mdr1a-1 siRNA = given before TP. Here is the method: For TP plasma kinetic study and toxicological evaluation, mice were divided into four groups (n = 5 each) to collect blood and tissue samples: (1) normal + saline group; (2) 1.0 mg/kg TP + 15 nmol NC-siRNA group; (3) 1.0 mg/kg TP + 15 nmol mdr1a-siRNA group; (4) 1.0 mg/kg TP + 10 mg/kg tariquidar group. In order to avoid the complication caused by drug absorption or possible intestinal first-pass effect, TP and the inhibitor were intravenously administrated to mice. The siRNA group was intravenously injected with NC-siRNA or mdr1a-siRNA 2 days before TP dose. For TP + tariquidar group, the mice were received an intravenous tariquidar dose 20 min prior to the TP injection. Blood samples were collected at 2, 5, 10, 15, 30, 60 and 120 min after TP dosing. To assess the liver exposure of TP, liver tissue samples were collected from another set of mice at 5, 30, 60 and 120 min after dosing. […] The concentrations of TP in plasma and liver tissue were measured by a validated LC-MS/MS method. […]
At 24 h of TP treatment, blood and liver tissue samples were collected from the mice in plasma kinetic study. Serum ALT and AST levels were determined with a CL8000 automated biochemical analyzer (Shimadzu, Japan) after serum was separated by centrifugation at 900 g for 10 min. […] The total protein concentration was quantified by the BCA assay. Bcl-2 and Bax proteins were measured by western blot.

The next data set concerns Bcl-2/Bax. The data set can be described thus: Bcl-2 and Bax expression in mouse liver (western blot). In kind it is in vivo. The following applies: mice, TP 1 mg/kg iv, 24 h; tariquidar and mdr1a-siRNA = given before TP. Here is the method:
For protein extraction, the cells or mice liver tissues were homogenized in RIPA buffer and then centrifuged at 14,000 g at 4 °C for 30 min. The supernatant was collected and the protein concentration was measured using BCA assay. The sample (50 μg protein/sample) was then loaded on 12% polyacrylamide gels and transferred to polyvinylidene difluoride membranes (Millipore, USA). After blocked by 3% bovine serum albumin, the membranes were incubated with primary antibodies and HRP-conjugated secondary antibody, and then detected using the enhanced chemiluminescence plus detection system (Molecular Device, Lmax, USA). The density of each band was quantified by using image analysis software (Science Lab 2005 Image Guage; Tokyo, Japan).
as §1, with “The other half was fixed with 4% paraformaldehyde solution and then dehydrated, embedded in paraffin and sectioned at a thickness of 5 μm. Four paraffin sections from each mouse were dewaxed, rehydrated and stained with hematoxylin-eosin (HE) for overall morphological evaluation.” left out
(In general: In western blotting, separated proteins are transferred to a membrane and probed.)

The nature of data set [3]: Preliminary experiment: effect of NC-siRNA on pharmacokinetics of TP in mice. In kind it is in vivo. The following applies: TP 1.0 mg/kg. The protocol:
Effect of NC-siRNA on pharmacokinetic of TP
Mice were divided into two groups to collect blood samples (n=5 each): (1) 1.0 mg/kg TP + saline group; (2) 1.0 mg/kg TP + 15 nmol NC-siRNA group. The siRNA group was intravenously injected with NC-siRNA 2 days before TP dose. Blood samples were collected at 2, 5, 10, 15, 30, 60 and 120 min after TP dosing. The concentrations of TP in plasma and liver were measured by a validated LC-MS/MS method.

The test system of the next data set is mdr1a mRNA. The data set can be described thus: RNAi knockdown of mdr1a mRNA in CT26.WT cells (real-time PCR). In kind it is cell-based, mouse. The conditions noted are these: siRNA 80 pM with Lipofectamin 2000, 48 h after transfection. Here is the method:
CT26.WT cells, a mouse colon carcinoma cell line, were obtained from ATCC and maintained in RPMI-1640 supplemented with 10% fetal bovine serum. Cells were seeded to 6-well plates at a density of 5 × 10^5 cells/well and cultured for 24 h. Transfection was performed in Opti-MEM (Invitrogen, Carlsbad, CA, USA) with synthetic siRNA (80 pM) by using Lipofectamin 2000 (Invitrogen, Carlsbad, CA, USA) for 6 h and the medium was replaced with fresh RPMI-1640. This condition was optimized in our preliminary experiments based on the transfection efficiency and the cellular viability. Following incubation for 48 h, the cells were washed three times with phosphate buffered saline buffer (PBS) and total RNA and protein were collected.
Total RNA from CT26. WT cells was extracted with Trizol (Invitrogen, Carlsbad, CA, USA) according to the manufacturer’s instructions. RNA samples (1 μg) were reverse transcribed by adding oligo(dT)18 (MBI Fermentas, USA), dNTP, RNase inhibitor, and M-MLV reverse transcriptase (Takara, Japan), holding at room temperature for 10 min and incubating at 42 °C for 60 min. The samples were heated at 72 °C to inactivate enzymes for 10 min and stored at −20 °C. Real-time PCR was performed using sense and antisense primers. […] The relative amount of target mRNA was determined using the comparative threshold (Ct) method by normalizing target mRNA Ct values to those for β-actin (ΔCt). […]

T1 sequence (P21447 whole entry): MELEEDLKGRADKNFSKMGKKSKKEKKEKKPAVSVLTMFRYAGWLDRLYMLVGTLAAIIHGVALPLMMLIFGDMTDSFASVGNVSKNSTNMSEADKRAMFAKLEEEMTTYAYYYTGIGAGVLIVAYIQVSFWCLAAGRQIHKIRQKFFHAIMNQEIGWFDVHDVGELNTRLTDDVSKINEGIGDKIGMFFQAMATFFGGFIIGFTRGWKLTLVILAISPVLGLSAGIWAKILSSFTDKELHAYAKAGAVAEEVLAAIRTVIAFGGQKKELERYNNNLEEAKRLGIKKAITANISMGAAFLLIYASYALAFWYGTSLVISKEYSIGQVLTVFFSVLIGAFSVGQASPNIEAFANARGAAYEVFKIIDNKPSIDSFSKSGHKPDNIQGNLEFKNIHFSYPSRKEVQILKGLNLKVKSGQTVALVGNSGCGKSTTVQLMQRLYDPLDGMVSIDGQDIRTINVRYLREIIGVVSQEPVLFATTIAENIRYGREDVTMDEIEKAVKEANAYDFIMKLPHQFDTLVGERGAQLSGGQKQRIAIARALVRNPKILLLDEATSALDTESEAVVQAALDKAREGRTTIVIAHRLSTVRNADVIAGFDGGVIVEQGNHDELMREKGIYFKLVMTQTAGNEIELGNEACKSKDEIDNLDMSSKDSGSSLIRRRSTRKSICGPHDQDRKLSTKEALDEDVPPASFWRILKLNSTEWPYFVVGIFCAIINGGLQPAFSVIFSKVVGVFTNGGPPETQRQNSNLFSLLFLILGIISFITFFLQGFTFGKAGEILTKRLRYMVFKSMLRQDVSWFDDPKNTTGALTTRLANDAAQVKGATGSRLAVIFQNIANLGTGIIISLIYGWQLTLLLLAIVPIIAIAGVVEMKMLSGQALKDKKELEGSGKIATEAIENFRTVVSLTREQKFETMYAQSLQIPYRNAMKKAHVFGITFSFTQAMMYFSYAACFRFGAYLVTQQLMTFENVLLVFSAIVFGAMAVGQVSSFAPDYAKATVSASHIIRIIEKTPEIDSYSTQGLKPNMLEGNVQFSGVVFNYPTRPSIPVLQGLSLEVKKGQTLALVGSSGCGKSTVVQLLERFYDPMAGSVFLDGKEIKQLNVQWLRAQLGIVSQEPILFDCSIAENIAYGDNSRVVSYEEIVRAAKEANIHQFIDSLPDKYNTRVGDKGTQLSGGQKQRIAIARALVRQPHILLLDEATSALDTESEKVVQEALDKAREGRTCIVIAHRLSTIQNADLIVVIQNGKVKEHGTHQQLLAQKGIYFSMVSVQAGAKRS

`C[C@H]1O[C@@H](O[C@H]2[C@@H](O)C[C@H](O[C@H]3[C@@H](O)C[C@H](O[C@H]4CC[C@@]5(C)[C@H](CC[C@@H]6[C@@H]5C[C@@H](O)[C@]5(C)[C@@H](C7=CC(=O)OC7)CC[C@]65O)C4)O[C@@H]3C)O[C@@H]2C)C[C@H](O)[C@@H]1O` [Digoxin, digoxin]: at P-gp (NC-siRNA iv 2 days prior), the AUC(0-t) stood at 3360 ± 739 ng·h/mL, the highest level (Cmax) was 1740 ± 574 ng/mL, the mean residence time (MRT) worked out at 3.7 ± 0.3 h and the Vd was found to be 2 ± 0.5 L/kg. On P-gp (NC-siRNA iv 2 days prior), this molecule gave a clearance of 4.21 mL/min/kg and a half-life of 5.7 ± 1.3 h. On P-gp (mdr1a-1 siRNA iv 2 days prior), this molecule came in with an AUC(0-t) of 8770 ± 1450 ng·h/mL, a Cmax of 2260 ± 267 ng/mL, an MRT of 3.8 ± 0.4 h and a Vd of 0.6 ± 0.08 L/kg. At P-gp (mdr1a-1 siRNA iv 2 days prior), this molecule gave a clearance of 1.66 mL/min/kg and a half-life of 4 ± 1.4 h.

On to `COc1cc2c(cc1OC)CN(CCc1ccc(NC(=O)c3cc(OC)c(OC)cc3NC(=O)c3cnc4ccccc4c3)cc1)CC2` [tariquidar, Tariquidar, reference compound], for which, in the data set on BALB/C mice [1], the “Serum ALT level, folds of the TP+NC-siRNA group” value was determined as 1.2 folds and the “Serum AST level, folds of the TP+NC-siRNA group” value was determined as 1.9 folds. In the data set on BALB/C mice [2], the “Histopathological changes in liver (HE)” value is on record as “more severe”. The “Bcl-2/Bax ratio in liver” value with Bcl-2/Bax is “markedly reduced the ratio”.

With “NC-siRNA: negative control siRNA, sense 5′-UUCUCCGAACGUGUCACGUTT-3′ (antisense ACGUGACACGUUCGGAGAATT; sugars by position and backbone not given here; 3' and 5' ends modified with methylation and cholesterol) [reference compound]”, the “Differences in TP plasma concentrations and kinetic parameters, NC-siRNA treated vs normal (saline) mice” value in data set [3] is “No significant differences”.

As for “mdr1a-2: murine mdr1a siRNA, sense 5′-r(AGA AGGAAC UAG AAG GUU CUG) d(TT)-3′ (sense AGAAGGAACUAGAAGGUUCUG; antisense CAGAACCUUCUAGUUCCUUCU; RNA, 3' dTdT, backbone and methylation of C not given here; 3' and 5' ends modified with methylation and cholesterol)”, in the data set with mdr1a mRNA, the “Silencing efficiency on mdr1a mRNA” value turned out to be 51%.

For “mdr1a-3: murine mdr1a siRNA, sense 5′-GGCUGGACAAGCUGUGCAUGG-3′ (antisense AUGCACAGCUUGUCCAGCCAA; sugars by position and backbone not given here; 3' and 5' ends modified with methylation and cholesterol)”, in the data set on mdr1a mRNA, the “Silencing efficiency on mdr1a mRNA” value turned out to be 46%.

For orientation: AUC(0-t) means the area under the concentration-time curve up to a stated or last time point. What is called Cmax is the maximum level reached in the sampled fluid or tissue. In general, MRT refers to a mean duration of stay, worked out from the concentration-time curve. For orientation: Vd means a proportionality between amount in the body and measured concentration, not a real space. A higher Vd goes with extensive tissue distribution. As usually defined, the clearance is the volume of plasma or blood freed of the substance per unit of time. In general, half-life refers to how long it takes for the measured level to halve. The low end stands for rapid decline, the high end for slow decline.
